# Read-outs that look alike come from different tables or passages of the source. No end group written: not given here.
# T1: TNFR1 (Homo sapiens, UniProt P19438)
# T1 sequence (P19438 30-455): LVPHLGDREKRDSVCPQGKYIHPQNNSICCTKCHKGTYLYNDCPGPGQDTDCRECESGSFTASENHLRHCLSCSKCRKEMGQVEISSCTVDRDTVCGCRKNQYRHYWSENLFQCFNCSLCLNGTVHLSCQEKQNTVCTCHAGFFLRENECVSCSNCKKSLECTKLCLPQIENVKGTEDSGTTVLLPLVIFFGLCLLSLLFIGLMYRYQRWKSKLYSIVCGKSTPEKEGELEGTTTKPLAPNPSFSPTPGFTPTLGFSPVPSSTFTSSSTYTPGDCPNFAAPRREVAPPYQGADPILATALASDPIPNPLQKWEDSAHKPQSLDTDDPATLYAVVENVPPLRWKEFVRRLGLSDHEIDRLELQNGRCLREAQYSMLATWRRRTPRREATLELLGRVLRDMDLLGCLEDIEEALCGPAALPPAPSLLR
# T2: interaction of TNFR1 and TNF-α (Homo sapiens, UniProt P19438)
# T2 sequence (P19438 30-211 limits assumed): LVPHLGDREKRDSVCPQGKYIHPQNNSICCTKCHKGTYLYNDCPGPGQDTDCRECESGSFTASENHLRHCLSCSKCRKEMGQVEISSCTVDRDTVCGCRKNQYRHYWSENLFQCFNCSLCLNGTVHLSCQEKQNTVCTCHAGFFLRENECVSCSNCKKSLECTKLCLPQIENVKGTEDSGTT
# T3: TNFR2 (Homo sapiens, UniProt P20333)
# T3 sequence (P20333 23-461): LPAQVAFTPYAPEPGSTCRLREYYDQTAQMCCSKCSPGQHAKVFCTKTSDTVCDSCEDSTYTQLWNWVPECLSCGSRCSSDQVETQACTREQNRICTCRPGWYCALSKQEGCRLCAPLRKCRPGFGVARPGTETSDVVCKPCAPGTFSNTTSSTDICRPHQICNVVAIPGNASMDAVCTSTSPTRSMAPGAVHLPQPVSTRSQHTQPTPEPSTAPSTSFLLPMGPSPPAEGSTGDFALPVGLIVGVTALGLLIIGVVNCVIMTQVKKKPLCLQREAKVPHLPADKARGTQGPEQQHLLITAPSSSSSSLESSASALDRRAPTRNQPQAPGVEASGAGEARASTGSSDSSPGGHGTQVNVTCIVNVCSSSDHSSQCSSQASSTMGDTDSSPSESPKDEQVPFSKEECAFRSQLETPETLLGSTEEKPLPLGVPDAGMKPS
# T4: interaction of TNFR1 with TNF-α (Homo sapiens, UniProt P19438)
# T4 sequence (P19438 30-211 limits assumed): T2 sequence (P19438 30-211 limits assumed)
# B1: selective TNFR1 antagonist peptide Hydrostatin-SN10 (peptide)
# peptide: DEQHLETELH
# modifications: not checked
# Key:
# [1] = biological target: TNF-α; experiment: MST, fluorescently labelled TNF-α, TNFR1 titrated, no SN10
# [2] = biological target: TNFR1; experiment: MST, fluorescently labelled TNFR1, TNF-α titrated, no SN10
# [3] = biological target: TNFR2; experiment: MST, fluorescently labelled TNFR2, TNF-α titrated, no SN10
# [4] = biological target: TNFR2; experiment: MST, fluorescently labelled TNFR2, TNF-α titrated in the presence of 100 µM SN10; apparent KD
# [5] = system: CIA mice; experiment: Joint histology of CIA mice (HE staining, TNF-α immunohistochemistry, TRAP staining); assay type: in vivo, DBA/1 mice; settings: for osteoclasts in joints / tartrate-resistant phosphatase (TRAP) in joints: TRAP staining; for osteoclasts in joints / tartrate-resistant phosphatase (TRAP) in joints / amount of expression of TNF-α in the joints: vs model group; for amount of expression of TNF-α in the joints: immunohistochemistry
# [6] = system: CIA mice; experiment: Treg (Foxp3) and Th1, Th2, Th17 expression in T cells/splenocytes of CIA mice; assay type: in vivo, DBA/1 mice; settings: vs model group; for expression level of Foxp3 in Treg cells: CIA mice; for expression level of IFN-γ (Th1) / expression level of IL-17 (Th17) / expression of IL-4 (Th2): splenocytes of CIA mice
# Procedure: (§1) After 3 days of adaptation, DBA/1 mice were weighed and began to model. Six were randomly selected as the normal group, and the rest were the experimental group.
# (§2) Day 0: Take bovine type IT collagen (4 mg/ml) and vortex and mix with an equal volume of CFA (4 mg/ml). It is better to not disperse on the water, and 100 ul/head is injected intradermally into the tail of the mouse.
# (§3) Day 21: Take bovine type II collagen (4 mg/ml) and vortex mixed with an equal volume of IFA (4 mg/ml) until the droplets are not dispersed on the water. The mice are injected intradermally with 100 ul/head. On the 30th day, the model was successfully established. […] The drug was administered by injection once a day for 18 days.
# (§4) One-Way ANOVA statistical analysis of the data using Graphpad Prism 5 was considered statistically significant at P<0.05. “*” indicates P<0.05, “**” indicates P<0.01, and “***” indicates P<0.001.
# Studies have shown that Th17 cells secrete high levels of IL-17, which stimulates the secretion of matrix metalloproteinase-1, IL-1β by FLS. TNF-α and other co-inducing NF-κB receptor activator ligands are involved in the bone destruction of RA and inflammatory damage in tissues. The effect was observed by measuring the expression of helper T cells in splenocytes.
# [7] = system: CIA mice; experiment: Micro-CT detection of bone destruction in CIA mice; assay type: in vivo, DBA/1 mice; settings: for trabecular bone damage: Micro-CT of trabecular bone; for trabecular bone damage / degree of bone destruction, hind limbs: CIA mice; for trabecular bone damage / bone area/tissue volume (BS/TV) / bone mineral density (BMD) / bone surface area/bone volume (BS/BV) / bone volume/tissue volume (BV/TV) / number of trabeculae (Th.N) / trabecular model factor (Tb.pf) / trabecular separation (Tb.sp) / trabecular thickness (Tb.Th): vs model group; for degree of bone destruction, hind limbs / bone area/tissue volume (BS/TV) / bone mineral density (BMD) / bone surface area/bone volume (BS/BV) / bone volume/tissue volume (BV/TV) / number of trabeculae (Th.N) / trabecular model factor (Tb.pf) / trabecular separation (Tb.sp) / trabecular thickness (Tb.Th): Micro-CT; for degree of bone destruction, hind limbs: peptides 1600 ug/kg, infliximab 4 mg/kg i.p.; for bone area/tissue volume (BS/TV) / bone mineral density (BMD) / bone surface area/bone volume (BS/BV) / bone volume/tissue volume (BV/TV) / number of trabeculae (Th.N) / trabecular model factor (Tb.pf) / trabecular separation (Tb.sp) / trabecular thickness (Tb.Th): trabecular bone
# [8] = system: CIA mice; experiment: Collagen-specific antibody and inflammatory factors in serum of CIA mice (ELISA, multi-factor kit); assay type: in vivo, DBA/1 mice; settings: 1600 ug/kg i.p., vs model group
# Procedure: as §1, §2, §3, §4
# The ELISA kit and multi-factor kit were used to determine the collagen-specific antibody Ig G and pro-inflammatory factors IL-17, TNF-α, IL-6, IFN-γ and anti-inflammatory factor IL-10 in the serum of each group of mice. Compared with the normal control group, the collagen-specific antibody Ig G and the pro-inflammatory factors IL-17, TNF-α, IL-6, IFN-γ in the serum of the model group mice.
# [9] = biological target: T1, TNFR1; settings: read-out: binding capacity with TNFR1 (KD); SPR; from Hailong Jiang 2015 master dissertation of the inventors' group; cited from earlier work
# [10] = system: CIA mice; experiment: Arthritis index in type II bovine collagen-induced arthritis (CIA) mice; assay type: in vivo, DBA/1 mice; settings: i.p. 1600 ug/kg once a day for 18 days, vs model group
# Procedure: as §1, §2, §3, §4
# [11] = biological target: T5, TNF-α (Homo sapiens, UniProt P01375); experiment: MST interaction with TNF-α; assay type: binding; settings: fluorescently labeled TNF-α
# [12] = biological target: T5, TNF-α; experiment: BIAcore (SPR) interaction with TNF-α; assay type: binding
# [13] = biological target: T2, interaction of TNFR1 and TNF-α; experiment: MST competitive inhibition between TNF-α and TNFR1; assay type: binding
# Description: Calculate the KD value by software. The changes of TNF-α saturation concentration, response amplitude and KD value before and after Hydrostatin-SN10 were compared.
# [14] = biological target: T3, TNFR2; experiment: MST interaction with TNFR2; assay type: binding
# [15] = biological target: T4, interaction of TNFR1 with TNF-α; experiment: BIAcore (SPR) competitive inhibition between TNF-α and TNFR1; assay type: binding
# [16] = biological target: TNFR1
# [17] = biological target: TNFR1; experiment: MST, fluorescently labelled TNFR1 with an SN10 dilution series
# [18] = biological target: TNFR1; experiment: BIAcore SPR, TNFR1 coated on CM-5 chip, peptide injected
# [19] = biological target: TNFR1; remark: listed apart in the source
Molecule,inflammatory cell infiltration ([5]; HE staining of joint),joint damage ([5]; HE staining of joint),joint structure ([5]; HE staining of joint),expression level of Foxp3 in Treg cells [6],expression level of IFN-γ (Th1) [6],expression level of IL-17 (Th17) [6],expression of IL-4 (Th2) [6],trabecular bone damage [7],"degree of bone destruction, hind limbs [7]",osteoclasts in joints [5],tartrate-resistant phosphatase (TRAP) in joints [5],amount of expression of TNF-α in the joints [5],content of IFN-γ in serum [8],content of IL-6 in serum [8],content of IL-17 in serum [8],content of TNF-α in serum [8],content of anti-inflammatory factor IL10 in serum [8],content of collagen-specific antibody Ig G in serum [8],bone area/tissue volume (BS/TV) [7],bone mineral density (BMD) [7],other results
TNFR1 (receptor),,,,,,,,,,,,,,,,,,,,,Kd [1]: 0.00284 µM
TNF-α (ligand),,,,,,,,,,,,,,,,,,,,,Kd [2]: 0.116 µM; Kd [3]: 0.328 µM; Kd [4]: 0.384 µM
"infliximab: anti-TNF-α monoclonal antibody, positive drug [reference compound]",weak inflammatory cell infiltration,significantly weakened,complete joint structure,significantly increased,significantly down-regulated,significantly down-regulated,up-regulated,significantly reduced bone damage,significantly reduced the degree of bone destruction,,,,,,,,,,,,
"PEG-SN10: Hydrostatin-SN10 modified by mPEG2000, carboxyl of mPEG2000 connected to free amino group of N-terminal aspartic acid (mPEG2000-DEQHLETELH)",weak inflammatory cell infiltration,significantly weakened,complete joint structure,significantly increased,significantly down-regulated,significantly down-regulated,up-regulated,significantly reduced bone damage,significantly reduced the degree of bone destruction,reduced osteoclasts,reduced,reduced,significantly reduced,significantly reduced,significantly reduced,significantly reduced,Significantly increased,significantly reduced,significantly up-regulated,significantly up-regulated,bone surface area/bone volume (BS/BV) [7]: significant down; bone volume/tissue volume (BV/TV) [7]: significantly up-regulated; number of trabeculae (Th.N) [7]: significantly up-regulated; trabecular model factor (Tb.pf) [7]: significant down; trabecular separation (Tb.sp) [7]: significant down; trabecular thickness (Tb.Th) [7]: significantly up-regulated
H-DEQHLETELH [Hydrostatin-SN10],more severe inflammatory cell infiltration,,intact joint structure,significantly increased,significantly down-regulated,significantly down-regulated,up-regulated,significantly reduced bone damage,significantly reduced the degree of bone destruction,reduced osteoclasts,reduced,reduced,significantly reduced,significantly reduced,significantly reduced,significantly reduced,Significantly increased,significantly reduced,significantly up-regulated,significantly up-regulated,"Kd [9]: ~2.8 µM; arthritis index [10]: reduced; synovial hyperplasia ([5]; HE staining of joint): severe synovial hyperplasia; binding to TNF-α [11]: not binding; binding to TNF-α ([11]; listed as SN10): no binding; bone surface area/bone volume (BS/BV) [7]: significant down; bone volume/tissue volume (BV/TV) [7]: significantly up-regulated; number of trabeculae (Th.N) [7]: significantly up-regulated; trabecular model factor (Tb.pf) [7]: significant down; trabecular separation (Tb.sp) [7]: significant down; trabecular thickness (Tb.Th) [7]: significantly up-regulated; binding to TNF-α [12]: does not bind; binding to TNF-α ([12]; listed as SN10): no binding; competitive inhibition of the interaction of TNFR1 and TNF-α [13]: competitively inhibit; binding to TNFR2 ([14]; fluorescently labeled TNFR2): not binding; binding to TNFR2 ([14]; fluorescently labeled TNFR2, listed as SN10): no binding; competitive inhibition of the interaction of TNFR1 with TNF-α [15]: competitively inhibits"
B1,,,,,,,,,,,,,,,,,,,,,Kd [16]: 2.83 µM; Kd [17]: 2.8 µM; Kd [18]: 2.8 µM; Kd [19]: 2.77 µM
